# Test results taken from US20120231482A1, “METHOD, KIT OR DIAGNOSTIC FOR THE DETECTION OF REAGENTS WHICH INDUCE ALTERED CONTRACTILITY” (THE JOHNS HOPKINS UNIVERSITY, priority 2009, published 2012).
# Assays:
# rat cardiac muscle = experiment: Force and [Ca2+]i measurements in cardiac trabeculae; type: cell-based
# Protocol: Force and [Ca^2+]i Measurements in Cardiac Trabeculae.
# Rat hearts were exposed via midsternotomy after the animals were anesthetized with intraperitoneal injection of pentobarbital (100 mg/kg), and were then rapidly excised and aorta cannulated. The hearts were perfused retrogradely (˜15 ml/min) with high K^+ Krebs-Henseleit (H-K) solution equilibrated with 95% O2 and 5% CO2. Trabeculae were quickly dissected from the right ventricles of the hearts and mounted between a force transducer and a motor arm. The muscles were superfused with K-H solution at a rate of ˜10 ml/min and stimulated at 0.5 Hz. Force was measured using a force transducer system (SI, Germany) and expressed in mN/mm^2. Sarcomere length was measured by laser diffraction. Fura-2 potassium salt was microinjected iontophoretically into one cell and allowed to spread throughout the whole muscle (via gap junctions). The epifluorescence of fura-2 was measured by exciting at 380 and 340 nm. The fluorescent light was collected at 510 nm by a photomultiplier tube (R1527, Hamamatsu). [Ca^2+]i was given by (after subtraction of the autofluorescence): [Ca^2+]i=K′d(R-Rmin)/(Rmax-R), where R is the observed ratio of fluorescence (340/380), K′d is the apparent dissociation constant, Rmax is the ratio of 340 nm/380 nm at saturating [Ca^2+], and Rmin is the ratio of 340 nm/380 nm at zero [Ca^2+]. The values of K′d, Rmax, and Rmin were determined by in vivo calibrations. Tetanization of the trabecula was achieved by addition of ryanodine (1.0 μmol/L) and by increasing the stimulus rate to 10 Hz briefly (˜3 sec) to obtain steady-state force-[Ca^2+] relations. Different levels of tetanized force will be obtained by increasing [Ca^2+] in the perfusate (up to 20-25 mmol/L). The data will be fitted with the Hill equation: F=Fmax[Ca^2+]in/(K1/2n+[Ca^2+]in), where Fmax is the maximal force. K1/2 is [Ca^2+]i at half Fmax, and n is the Hill coefficient.
# 1-nitrosocyclohexylacetate (NCA) is a new and mechanistically unique HNO donor that has been recently synthesized.
# MLC1 = molecular target: T1, MLC1 (Rattus norvegicus, UniProt P02600); experiment: 2D gel shift western blot of skeletal myofibrils; type: biochemical; conditions: skeletal samples
# T1 construct: using 10 μg of skeletal or cardiac myofibrils; from tissue; host or cells: skeletal muscle myofibrils
# T1 sequence (P02600 whole entry): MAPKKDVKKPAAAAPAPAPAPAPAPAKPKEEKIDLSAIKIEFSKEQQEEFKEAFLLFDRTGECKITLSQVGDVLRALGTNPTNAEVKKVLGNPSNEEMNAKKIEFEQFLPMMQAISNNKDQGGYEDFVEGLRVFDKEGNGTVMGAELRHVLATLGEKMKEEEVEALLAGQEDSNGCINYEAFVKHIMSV
# Excerpt: FIG. 6. MLC1 Cys81 necessary for increase in Fmax induced by treatment with HNO donors. (a) Sequence alignment comparing isoforms of rat cardiac (SEQ ID NO:16) and skeletal MLC1 (SEQ ID NO:17) in the region surrounding cardiac Cys81. (b) Steady-state force-[Ca^2+]i relations in control (o) versus NCA-treated (•) from cardiac or skeletal trabeculae indicating loss of increase in maximum force with loss of Cys81 in skeletal isoform with NCA (n=5, each group). (c) 2D Gel shift assay (non-reduced, NR and reduced, DTT) using 10 μg of skeletal or cardiac myofibrils indicating loss of higher molecular weight forms of MLC1 in skeletal HNO treated preparations while maintaining higher molecular weight form of TM (n=3).
# Gel shift assay. 10 μg of rat myofibrils/treatment were diluted to 0.5 μg/μl in HEN including 0.1% (w/v) SDS and exposed to a treatment for 20 min at 37° C. Samples were diluted to 0.1 ug/ul in 1×LSD sample buffer, treated with 0, 5 or 100 mM DTT and separated by SDS PAGE. Proteins were silver stained or transferred to nitrocellulose and immunoblotted with primary antibodies for tropomyosin sarcomeric (CH1, Sigma-Aldrich Co., St. Louis, Mo., USA), actin (AC-40, Sigma-Aldrich Co., St. Louis, Mo., USA), myosin light chain 1 (MLM527, Abcam, Cambridge, Mass., USA) or myosin heavy chain (3-48, Abcam, Cambridge, Mass., USA). […]
# skinned trabeculae = experiment: Force-[Ca2+] relation in skinned trabeculae; type: cell-based, rat; conditions: after skinning; NCA
# Protocol: FIG. 2. […] (A) Steady-state force-[Ca^2+]i relationship in intact trabeculae before and after NCA (20 μmol/L). n=5. See text for details. (B) Force-[Ca^2+] relation in skinned trabeculae before and after NCA (n=6). […] The muscles were treated with DTT (5 mM) for 10 min after 1st force-[Ca^2+] was obtained in the presence of NCA alone, and a second force-[Ca^2+] relation was obtained in the presence of NCA+DTT. n=3. (D) For comparison, steady-state force-[Ca^2+]i relationship in intact trabeculae before and after AS (500 μmol/L). n=5.
# To further test this hypothesis, steady-state force-[Ca^2+]i relations were obtained by tetanizing the muscles in the presence of ryanodine.
# [1] = 20˜100 μmol/L, 0.5 mmol/L [Ca2+]o
# [2] = NCA 100 μmol/L, isolated cardiac muscle
# [3] = in the presence of NCA, varied external Ca2+
compound,measurement,setting,value
"CC(=O)OC1(N=O)CCCCC1 [NCA, 1-nitrosocyclohexylacetate]",diastolic force,rat cardiac muscle; [1],no changes
same,force development,rat cardiac muscle; [1],increases force development in a dose dependent manner
same,Ca2+ transient,rat cardiac muscle; [2],0.39 ± 0.08 µmol/L
same,force,rat cardiac muscle; [2],32.3 ± 4.8 mN/mm²
same,diastolic Ca2+,rat cardiac muscle; dose-response,increased only at high doses
same,amplitude of intracellular Ca2+ transients,rat cardiac muscle; [3],not different from control
same,systolic force at any given external Ca2+,rat cardiac muscle; [3],remained significantly higher
same,Force-frequency relationship,rat cardiac muscle; without rising [Ca2+]i,enhanced
same,higher molecular weight forms of MLC1,MLC1,absence of higher molecular weight forms of MLC1
same,Hill,skinned trabeculae,2.39±1.02
